Measurements published in patent publication US12622894B2, “Pharmaceutical compositions and intravitreal drug delivery systems for the treatment of ocular diseases” (Perfuse Therapeutics, Inc., priority 2021, dated 2026).
One block for each molecule: values may come before it.

Tests used:
[1] = cited from earlier work
[2] = Slurry conversion of crystalline forms in isopropanol and water, XRPD analysis; format: physicochemical
Experimental: In an alternate method, 150 mg of Edonentan (Form 3) was added to a mixture of isopropanol and water (1 mL and 2 mL, respectively). The resulting slurry was stirred at 15° C. for 48 hours and then filtered.
In an alternate method, 200 mg of Edonentan (Form 1) was added to a mixture of isopropanol and water (1.3 mL and 2.6 mL, respectively). The resulting solution was heated to 80° C. and stirred for 24 h, then cooled and filtered.

[3] = pH 7.4 in 2 mg/mL melanin solution; cited from earlier work
[4] = In vitro melanin binding assay with synthetic melanin; conditions: 200 μM; melanin 1 mg/mL
Experimental: A concentration of 200 μM chloroquine was used as a positive control.

SMILES: Cc1onc(NS(=O)(=O)c2ccccc2-c2ccc(-c3ncco3)cc2CN(C)C(=O)CC(C)(C)C)c1C [Edonentan, N-[[2′-[[(4,5-dimethyl-3-isoxazolyl)amino]sulfonyl]-4-(2-oxazolyl)[1,1′-biphenyl]-2-yl]methyl]-N,3,3-trimethylbutanamide]
- oral Tmax [1]: 24 min

SMILES: Cc1onc(NS(=O)(=O)c2ccccc2-c2ccc(-c3ncco3)cc2CN(C)C(=O)CC(C)(C)C)c1C [Form 1]
- Solubility pH 7.0 Phosphate Buffer: 264 μg/mL

SMILES: Cc1onc(NS(=O)(=O)c2ccccc2-c2ccc(-c3ncco3)cc2CN(C)C(=O)CC(C)(C)C)c1C [Form 4]
- relative thermodynamic stability of crystalline forms ([2]; Form 1 in isopropanol and water, 80° C., 24 h): more thermodynamically stable than Form 1
- relative thermodynamic stability of crystalline forms ([2]; slurry of Form 3 in isopropanol and water, 15° C., 48 hours): more thermodynamically stable than Form 3

Now from value to molecule, other results behind:

- Solubility pH 7.0 Phosphate Buffer: 35 μg/mL
SMILES: Cc1onc(NS(=O)(=O)c2ccccc2-c2ccc(-c3ncco3)cc2CN(C)C(=O)CC(C)(C)C)c1C [Form 2]

- Solubility pH 7.0 Phosphate Buffer: 251 μg/mL
SMILES: Cc1onc(NS(=O)(=O)c2ccccc2-c2ccc(-c3ncco3)cc2CN(C)C(=O)CC(C)(C)C)c1C [Form 3]

- binding to melanin (% bound) [4]: 99.5 % bound
SMILES: CCN(CC)CCCC(C)Nc1ccnc2cc(Cl)ccc12 (centres unmarked) [chloroquine]
- bound to melanin, literature values [3]: 92-99.6 % bound
